Reference: patent publication US20040220249A1, “Prevention of surgical adhesions using selective COX-2 inhibitors” (Children's Medical Center Corporation, priority 2003, published 2004)

Legend:
[1] = system: adhesions; conditions: cited from earlier work
[2] = system: endothelium (CD31/PECAM-1) of granulation tissue; test: Microvessel density of granulation tissue surrounding the silicone patch (CD31 immunostaining, image analysis); assay type: in vivo, mice (C57BL/6); conditions: day 10; CD31-stained area as proportion of total area; mean ± SEM; control 6.4±0.6
Protocol: Silicone patches and abdominal wall were fixed at 4 degrees Celsius in 10% formalin overnight and washed with phosphate buffered saline. The specimens were then embedded in paraffin and 5 micron sections were cut. Endothelial cells were identified by antibody staining against the endothelial cell surface antigen CD31 (PECAM-1) and a diaminobenzidine chromogen (BD Biosciences Pharmingen, San Diego, Calif.). After deparaffinization and rehydration, sections were incubated with proteinase K (Roche, Basel, Switzerland) for 30 min at 37° C. Non-specific binding sites were blocked for 30 min at room temperature with TNB blocking buffer (NEN Life Sciences, Boston, Mass.). Primary CD31 antiserum (Pharmingen) was added to the sections overnight at 4° C. Slides were washed twice with phosphate buffered saline and secondary goat anti-mouse IgG antibody (Vector Laboratories, Burlingame, Calif.) was then added for 30 min at room temperature. After again washing twice with PBS the slides were incubated with streptavidin alkaline phosphatase solution (1:100) (Perkin-Elmer Life Sciences, Boston, Mass.) for 30 min at room temperature followed by biotinyl tyramide amplification dilutent (1:50) (Perkin-Elmer Life Sciences) for 10 min. After repeat incubation with alkaline phosphatase solution (1:100), for 30 min at room temperature, the chromagen, Vector Novar substrate kit (Vector Laboratories) was added. Slides were lightly counterstained with hematoxylin for imaging.
Sections were taken from the abdominal wall, patch, and lesions at sacrifice on day 10. To quantitate vessel density, CD31 immunostained sections underwent digital image analysis using a Nikon Eclipse TE300 inverting photomicroscope with an attached Spot RT (Diagnostic Instruments Inc.) video camera linked to a personal computer. Images were imported directly to the image analysis program IP Lab (Scanalytics Inc., Fairfax, Va.). Sequential images were grabbed at 200× for the […] sections without overlapping. To calculate the volume fraction of stained regions, a color threshold was chosen for each image that distinguished between the stained areas and background. The proportion of the selected color was calculated as a percentage of total area and used as a measure of vessel density. Sections from 3 different mice for each of the study groups were examined and vascularization was scanned and quantified in 5 representative fields per section.

[3] = system: intra-abdominal adhesion formation; test: Intra-abdominal adhesion model (laparotomy, cecal abrasion, silicone patch), adhesion score; assay type: in vivo, mice (C57BL/6); conditions: for intra-abdominal adhesion score (total, 0-16): 10 days after surgery, oral treatment for 10 days from day of surgery, mean +/- SEM, control 13.6+/-0.49; for decrease of intra-abdominal adhesion formation: FIG. 2, versus control mice; for intra-abdominal adhesion score (total, 0-16), durability: treated for 10 days, observed an additional 25 days before sacrifice (day 35), control 13.4+/-1.0
Protocol: Seven to eight week-old male C57BL/6 mice (Jackson Laboratories, Bar Harbor, Me.) were housed five animals to a cage in a barrier room. Mice were acclimated to their environment for at least 72 hours prior to the initiation of each experiment and allowed food and water ad libitum. Animal protocols complied with the NIH Animal Research Advisory Committee guidelines and were approved by the Children's Hospital Institutional Animal Care and Use Committee. A standard adhesion model was performed as previously described (Chiang 2000). Specifically, a 5.0 mm×5.0 mm square piece of sterile silicone (Dow Corning, Midland, Mich.) was secured intra-abdominally to the right abdominal wall, lateral to the epigastric vessels, with two 7-0 proline sutures under isoflurane anesthesia. The cecum then was gently rubbed with two cotton swabs to promote adhesion formation.
After recovering from anesthesia, groups of mice were treated with either oral methylcellulose alone (100 μl, control) or an experimental drug mixed in 100 μl methylcellulose beginning on the day of surgery for 10 days. […] Mice treated with COX-2 selective inhibitors received either celecoxib (68 mg/kg orally twice a day) or rofecoxib (40 mg/kg orally once a day) (Laudanno 2001).
Ten and 35 days after surgery, mice were euthanized and adhesion formation over the silicone patch was measured by two blinded individuals based on a previously described scoring system (Chiang S, et al. J Ped Surg. 2000, 35, 189-196). The tenacity, type, and extent of adhesions to the patch, as well as the extent of adhesions to the cecum were graded on a scale of 0 to 4. The total adhesion score was the sum of the four individual scores (see table 1, below). A minimum score was 0 and the maximum score was 16. Tenacity was rated as none (0), adhesions fell apart (1), lysed with traction (2), lysed with blunt dissection (3), lysed with sharp dissection (4). Type was scored as none (0), filmy (1), mildly dense (2), moderately dense (3), very dense (4). Extent was measured as the percent of the patch covered by adhesion: 0% (0), <25% (1), 25-50% (2), 50-75% (3), >75% (4). Cecal adhesions were graded as none (0), adhesions fell apart (1), lysed with traction (2), lysed with blunt dissection (3), lysed with sharp dissection (4).

## CO[C@@H]1[C@H](OC(=O)NC(=O)CCl)CC[C@]2(CO2)[C@H]1[C@@]1(C)O[C@@H]1CC=C(C)C [TNP-470]
[1]; literature
  side-effects: absence of healing of abdominal wounds
[1]; murine model (Chiang 2001)
  inhibition of adhesions: inhibit adhesions

## CC(=O)Oc1ccccc1C(=O)O [aspirin]
[2]
  microvessel density of granulation tissue surrounding the silicone patch: 13.3±1.0
[3]; 10 days after laparotomy, cecal abrasions and silicone patch placement, FIG. 1
  macroscopic adhesion formation over the silicone patch (photograph): dense adhesion formation over the silicone patch
[3]
  intra-abdominal adhesion score (total, 0-16): 13.8+/−0.4
  decrease of intra-abdominal adhesion formation: no effect
  intra-abdominal adhesion score (total, 0-16), durability: 12.2+/−1.2

## Cc1ccc(-c2cc(C(F)(F)F)nn2-c2ccc(S(N)(=O)=O)cc2)cc1 [celecoxib]
[2]
  microvessel density of granulation tissue surrounding the silicone patch: 3.8±0.8
[3]
  intra-abdominal adhesion score (total, 0-16): 1.36+/−0.5
  decrease of intra-abdominal adhesion formation: 74%
  intra-abdominal adhesion score (total, 0-16), durability: 1.5+/−0.9

## CC(C)Cc1ccc(C(C)C(=O)O)cc1 (stereo not shown) [ibuprophen]
[2]
  microvessel density of granulation tissue surrounding the silicone patch: 9.9±1.1
[3]
  intra-abdominal adhesion score (total, 0-16): 7.8+/−1.4

## COc1ccc2c(c1)c(CC(=O)O)c(C)n2C(=O)c1ccc(Cl)cc1 [indomethacin]
[2]
  microvessel density of granulation tissue surrounding the silicone patch: 11.3±1.5
[3]
  intra-abdominal adhesion score (total, 0-16): 7.3+/−1.7

## COc1ccc2cc([C@H](C)C(=O)O)ccc2c1 [naproxen]
[3]
  intra-abdominal adhesion score (total, 0-16): 8.4+/−2.2

## CS(=O)(=O)c1ccc(C2=C(c3ccccc3)C(=O)OC2)cc1 [rofecoxib]
[2]
  microvessel density of granulation tissue surrounding the silicone patch: 7.9±0.6
[3]
  intra-abdominal adhesion score (total, 0-16): 3.6+/−1.1
  decrease of intra-abdominal adhesion formation: 91%
